# In patent publication US7612061B2, “Piperazine compounds” (Les Laboratoires Servier, priority 2005, dated 2009):
# pKi: −log10 of the molar value. Counter-ions that a name gives are not always drawn.
# Tests used:
# [1] = target: T1, human NK1 receptors (Homo sapiens, UniProt P25103); experiment: hNK1 binding ([3H]-Substance P competition on IM9 human lymphoblast cells); conditions: IM9 human lymphoblast cells endogenously expressing NK1 receptors, 1.5 nM [3H]-Substance P, 90 minutes at ambient temperature; pKi=-log Ki (Cheng-Prusoff)
# T1 construct: IM9 human lymphoblast cells endogenously expressing NK1 receptors; endogenous in cells; host or cells: IM9 human lymphoblast cells (whole-cell preparation)
# T1 sequence (P25103 whole entry): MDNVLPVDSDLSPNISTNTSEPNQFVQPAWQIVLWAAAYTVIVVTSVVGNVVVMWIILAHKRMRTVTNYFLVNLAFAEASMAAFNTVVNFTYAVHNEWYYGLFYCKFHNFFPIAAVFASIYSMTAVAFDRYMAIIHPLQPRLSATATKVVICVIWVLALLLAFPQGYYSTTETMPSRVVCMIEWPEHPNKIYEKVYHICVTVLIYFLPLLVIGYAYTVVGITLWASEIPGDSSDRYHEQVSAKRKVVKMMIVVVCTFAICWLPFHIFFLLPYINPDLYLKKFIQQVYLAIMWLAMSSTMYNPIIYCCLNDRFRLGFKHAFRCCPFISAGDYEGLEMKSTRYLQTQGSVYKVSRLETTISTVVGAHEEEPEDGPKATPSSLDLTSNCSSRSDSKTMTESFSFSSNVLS
# Method: The affinity of compounds of the invention was determined by competition experiments in the presence of [^3H]-Substance P (Sar-9, MetO2-11,2-propyl-3,4-3H). IM9 human lymphoblast cells endogenously expressing NK1 receptors are centrifuged and taken up in the incubation buffer containing 50 mM TRIS, 150 mM NaCl, 4 mM CaCl2, protease inhibitors at 1/100^e (Cocktail SIGMA P8340) and 0.2% BSA. The volume of incubation buffer is determined so as to obtain a concentration of 5×10^6 cells/ml. The cell preparation is then incubated together with 1.5 nM [^3H]-Substance P and the compound under test for 90 minutes at ambient temperature. Non-specific binding is determined in the presence of 1 μM GR 205171.
# At the end of the incubation period, the samples are filtered through Unifilter GF/B type filters pretreated with PEI (0.1%) and washed several times with the filtration buffer (50 mM TRIS, 150 mM NaCl, 4 mM CaCl2). The radioactivity retained on the filters is measured by counting after addition of scintillation liquid to the filters. The counts are analysed by non-linear regression, allowing the isotherms to be plotted and the IC50 values to be determined. The latter are then converted into inhibition constants (Ki) by means of the Cheng-Prusoff equation: Ki=IC50/(1+L/KD) wherein L is the concentration of [^3H]-Substance P and KD is the dissociation constant of [^3H]-Substance P for human NK1 receptors (0.53 nM). The results are expressed as pKi(−log Ki).
# [2] = target: T2, serotonin (5-HTT) reuptake site (Rattus norvegicus, UniProt P31652); experiment: Affinity for serotonin reuptake sites in the rat ([3H]-citalopram competition); format: binding; conditions: rat frontal cortex membranes, 0.7 nM [3H]-citalopram, 2 hours at 25° C.; pKi=-log Ki (Cheng-Prusoff); read-out: pKi r5-HTT (converted)
# T2 construct: on rat frontal cortex membranes; from tissue; host or cells: rat frontal cortex membranes
# T2 sequence (P31652 whole entry): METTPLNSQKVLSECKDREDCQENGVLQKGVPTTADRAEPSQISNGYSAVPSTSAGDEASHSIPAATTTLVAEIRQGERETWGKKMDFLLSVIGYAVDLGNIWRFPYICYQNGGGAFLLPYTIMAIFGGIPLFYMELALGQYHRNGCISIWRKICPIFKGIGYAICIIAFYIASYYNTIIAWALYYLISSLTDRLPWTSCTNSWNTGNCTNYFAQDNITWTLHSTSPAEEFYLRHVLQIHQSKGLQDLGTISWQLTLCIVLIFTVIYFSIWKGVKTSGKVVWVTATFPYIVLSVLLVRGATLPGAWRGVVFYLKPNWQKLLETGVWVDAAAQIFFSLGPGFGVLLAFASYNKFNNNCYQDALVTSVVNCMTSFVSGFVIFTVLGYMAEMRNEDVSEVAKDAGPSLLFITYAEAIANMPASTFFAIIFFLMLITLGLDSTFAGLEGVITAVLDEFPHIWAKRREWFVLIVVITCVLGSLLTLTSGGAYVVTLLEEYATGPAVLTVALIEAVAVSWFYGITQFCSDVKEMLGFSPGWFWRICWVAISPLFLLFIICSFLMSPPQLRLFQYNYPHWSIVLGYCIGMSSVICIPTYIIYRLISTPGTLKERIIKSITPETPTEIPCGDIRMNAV
# Method: The affinity of the compounds for the serotonin (5-HTT) reuptake site is evaluated by competition experiments with [^3H]-citalopram on rat frontal cortex membranes. The cortices are homogenised using a Polytron in 40 volumes (weight/volume) of cold Tris-HCl (50 mM, pH 7.4) incubation buffer containing 120 mM NaCl and 5 mM KCl and are then centrifuged for a first time. The sediment is resuspended in the same buffer, incubated for 10 minutes at 37° C. and then re-centrifuged. The membranes are washed a further two times and the sediment is then resuspended in an appropriate volume of incubation buffer. The membranes are then incubated for 2 hours at 25° C. with the compound under test in the presence of 0.7 nM [^3H]-citalopram. Non-specific binding is determined with 10 μM fluoxetine. At the end of the incubation period, the samples are filtered through Unifilter GF/B type filters pretreated with PEI (0.5%) and washed several times with the incubation buffer. The radioactivity retained on the filters is counted after addition of scintillation liquid, with the aid of a scintillation counter. The isotherms obtained are analysed by non-linear regression to determine the IC50 values, which are converted into Ki using the Cheng-Prusoff equation: Ki=IC50/(1+L/kD) wherein L represents the concentration of radioligand and kD is the dissociation constant of [^3H]-citalopram on the serotonin reuptake site (0.7 nM). The results are expressed as pKi=−log Ki.
SMILES,pKi [1],Ki [2] [nM]
"Brc1cc(Br)cc(CO[C@@H]2CCCc3ccccc3[C@H]2N2CCNCC2)c1 (relative stereo) [Example 7, trans-1-{6-[(3,5-Dibromobenzyl)oxy]-6,7,8,9-tetrahydro-5H-benzo-[7]annulen-5-yl}piperazine dihydrochloride]",8.14,–
"COc1ccc2c(c1)CC[C@@H](OCc1cc(Br)cc(Br)c1)[C@@H]2N1CCNCC1 (relative stereo) [Example 13, trans-1-{2-[(3,5-Dibromobenzyl)oxy]-6-methoxy-1,2,3,4-tetrahydro-naphth-1-yl}piperazine dihydrochloride]",6.60,–
"Brc1cc(Br)cc(CO[C@@H]2CCOc3ccccc3[C@H]2N2CCNCC2)c1 (relative stereo) [Example 8, trans-1-{4-[(3,5-Dibromobenzyl)oxy]-2,3,4,5-tetrahydro-1-benzoxepin-5-yl}piperazine dihydrochloride]",7.54,–
"NC1CCN([C@@H]2c3ccccc3OC[C@H]2OCc2cc(Br)cc(Br)c2)CC1 (relative stereo) [Example 9, trans-1-{3-[(3,5-Dibromobenzyl)oxy]-3,4-dihydro-2H-chromen-4-yl}piperidin-4-amine dihydrochloride]",7.96,–
"Brc1cc(Br)cc(CO[C@@H]2CCc3ccccc3[C@H]2N2CCNCC2)c1 (racemic) [Example 15, trans-1-{2-[(3,5-Dibromobenzyl)oxy]-1,2,3,4-tetrahydronaphth-1-yl}piperazine dihydrochloride]",7.48,–
"Brc1cc(Br)cc(CO[C@@H]2COc3ccccc3[C@H]2N2CCNCC2)c1 (racemic) [Example 4, trans-1-{3-[(3,5-Dibromobenzyl)oxy]-3,4-dihydro-2H-chromen-4-yl}piperazine dihydrochloride]",8.25,79.4
"Brc1cc(Br)cc(CO[C@@H]2Cc3ccccc3[C@H]2N2CCNCC2)c1 (racemic) [Example 1, trans-1-{2-[(3,5-Dibromobenzyl)oxy]-2,3-dihydro-1H-inden-1-yl}-piperazine dihydrochloride]",6.84,4.47

# Second part, the compound after the results:
pKi [1],Ki [2] [nM],SMILES
6.85,–,"FC(F)(F)c1cc(CO[C@@H]2Cc3ccccc3[C@H]2N2CCNCC2)cc(C(F)(F)F)c1 (relative stereo) [Example 40, trans-1-(2-{[3,5-Bis(trifluoromethyl)benzyl]oxy}-2,3-dihydro-1H-inden-1-yl)piperazine dihydrochloride]"
7.40,–,"Brc1cc(Br)cc(COC2CCc3ccccc3C2N2CCCNCC2)c1 (single isomer, unassigned; (-)) [Example 19, (−) isomer of trans-1-{2-[(3,5-dibromobenzyl)oxy]-1,2,3,4-tetra-hydronaphth-1-yl}-1,4-diazepane dihydrochloride]"
–,35.5,"Fc1cc(Cl)cc(CO[C@@H]2COc3ccccc3[C@H]2N2CCNCC2)c1 (relative stereo) [Example 47, trans-1-{3-(3-Chloro-5-fluorobenzyloxy)-3,4-dihydro-2H-chromen-4-yl}piperazine dihydrochloride]"
–,12.3,"Brc1cc(Br)cc(CO[C@@H]2Cc3ccccc3[C@@H]2N2CCNCC2)c1 [Example 21, 1-{(1S,2R)-2-[(3,5-Dibromobenzyl)oxy]-2,3-dihydro-1H-inden-1-yl}-piperazine dihydrochloride]"
–,1.07,"Fc1cc(F)cc(CO[C@@H]2Cc3ccccc3[C@@H]2N2CCNCC2)c1 [Example 36, 1-[(1S,2R)-2-[(3,5-Difluorobenzyl)oxy]-2,3-dihydro-1H-inden-1-yl]-piperazine dihydrochloride]"
–,1.86,"Cc1cc(C)cc(CO[C@@H]2Cc3ccccc3[C@@H]2N2CCNCC2)c1 [Example 38, 1-[(1S,2R)-2-[(3,5-Dimethylbenzyl)oxy]-2,3-dihydro-1H-inden-1-yl]-piperazine dihydrochloride]"
–,49,"Clc1cc(Cl)cc(CO[C@@H]2COc3ccccc3[C@H]2N2CCNCC2)c1 (relative stereo) [Example 44, trans-1-{3-[(3,5-Dichlorobenzyl)oxy]-3,4-dihydro-2H-chromen-4-yl}-piperazine dihydrochloride]"
–,19.5,"COc1ccc2c(c1)[C@@H](N1CCNCC1)[C@H](OCc1cc(Cl)cc(Cl)c1)C2 (relative stereo) [Example 42, trans-1-{2-[(3,5-Dichlorobenzyl)oxy]-6-methoxy-2,3-dihydro-1H-inden-1-yl}piperazine dihydrochloride]"
